Laboratory results reported in the supplement of paper PMC11061612.

Key:
C32 (Melanoma) = assay: Bliss excess, mean over the matrix (fraction); higher = more synergy
In short: (§1)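 Cell lines in DMEM/F12 or RPMI with 10% FBS were plated in 1536-well plates, held 24 hours at 37°C, 5% CO2, then given two-drug dose matrices for 72 hours (DMSO typically 0.2%). Viability was read by CellTiter-Glo 2.0 luminescence and scaled as inhibition from 0 (vehicle wells) to 1 (blank wells). Combination Emax is the second-highest inhibition in the matrix; Bliss excess is observed combination effect minus expected EA + EB − EA·EB, EA and EB being single-agent effects.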

[1] = system: Daudi (Burkitt's Lymphoma); assay: as above
In short: as §1

[2] = system: NCI-H1435 (Non-Small Cell Lung Carcinoma); assay: as above
In short: as §1

[3] = system: NCI-H1648 (Lung Adenocarcinoma); assay: as above
In short: as §1

[4] = system: NCI-H1944 (Lung Adenocarcinoma); assay: as above
In short: as §1

[5] = system: NCI-H2023 (Non-Small Cell Lung Carcinoma); assay: as above
In short: as §1

[6] = system: OVKATE (Ovarian Carcinoma); assay: as above
In short: as §1

[7] = system: RPMI-8402 (T-Lymphoblastic Leukemia); assay: as above
In short: as §1

[8] = system: RS4-11 (B-Lymphoblastic Leukemia); assay: as above
In short: as §1

[9] = system: SBC-3 (Small Cell Lung Carcinoma); assay: as above
In short: as §1

SK-MEL-24 (Melanoma) [10] = assay: as above
In short: as §1

SK-N-DZ (Neuroblastoma) = assay: as above
In short: as §1

[11] = system: C2BBe1 (Colorectal Carcinoma); assay: combination Emax (second highest fraction inhibited in the dose matrix, 72 h); higher = more inhibition; extreme values may be limits of the assay
In short: as §1

HT-144 (Melanoma) = assay: as above
In short: as §1

[12] = system: JJN-3 (Plasma Cell Myeloma); assay: as above
In short: as §1

[13] = system: JURL-MK1 (Chronic Myelogenous Leukemia); assay: as above
In short: as §1

[14] = system: NTERA-2-cl-D1 (Other Solid Carcinomas); assay: as above
In short: as §1

[15] = system: OVKATE (Ovarian Carcinoma); assay: as above
In short: as §1

SK-MEL-24 (Melanoma) [16] = assay: as above
In short: as §1

[17] = system: SW1463 (Colorectal Carcinoma); assay: as above
In short: as §1
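Wherever Bliss excess, mean over the matrix is given: after 72 h of two-drug dosing.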

SMILES | Bliss excess (C32 (Melanoma)) | Bliss excess [1] | Bliss excess [2] | Bliss excess [3] | Bliss excess [4] | Bliss excess [5] | Bliss excess [6] | Bliss excess [7] | Bliss excess [8] | Bliss excess [9] | Bliss excess (SK-MEL-24 (Melanoma) [10]) | Bliss excess (SK-N-DZ (Neuroblastoma)) | combination Emax [11] | combination Emax (HT-144 (Melanoma)) | combination Emax [12] | combination Emax [13] | combination Emax [14] | combination Emax [15] | combination Emax (SK-MEL-24 (Melanoma) [16]) | combination Emax [17]
Cn1cnc2c(F)c(Nc3ccc(Br)cc3Cl)c(C(=O)NOCCO)cc21 [Selumetinib] + C=CCn1c(=O)c2cnc(Nc3ccc(N4CCN(C)CC4)cc3)nc2n1-c1cccc(C(C)(C)O)n1 [AZD1775] (first compound max 10 µM, partner max 1 µM) | -0.0036 | -0.0995 | 0.0007 | -0.0704 | -0.0481 | -0.0578 | -0.0524 | -0.0344 | -0.0443 | -0.0655 | -0.0315 | -0.022 | 0.569 | 0.812 | 0.67 | 1 | 0.271 | 0.173 | 0.68 | 0.665
Cn1cnc2c(F)c(Nc3ccc(Br)cc3Cl)c(C(=O)NOCCO)cc21 [Selumetinib] + CC(C)n1c(=O)n(C)c2cnc3cc(F)c(-c4ccc(OCCCN5CCCCC5)nc4)cc3c21 [AZD1390] (first compound max 10 µM, 7x7, partner max 0.3 µM) | -0.0244 | -0.02 | -0.0087 | -0.0418 | -0.0306 | -0.0292 | -0.0178 | -0.039 | -0.0245 | -0.0592 | -0.014 | -0.0207 | 0.351 | 0.734 | 0.281 | 0.973 | 0.235 | 0.179 | 0.495 | 0.702
Cn1cnc2c(F)c(Nc3ccc(Br)cc3Cl)c(C(=O)NOCCO)cc21 [Selumetinib] + CCN(CCO)CCCOc1ccc2c(Nc3cc(CC(=O)Nc4cccc(F)c4)[nH]n3)ncnc2c1 [AZD2811] (first compound max 10 µM, 7x7, partner max 1 µM) | 0.0124 | 0.0504 | -0.0112 | 0.0048 | 0.068 | -0.0294 | -0.0349 | 0.0136 | -0.0367 | -0.0518 | -0.0628 | -0.0764 | 0.484 | 0.786 | 0.551 | 0.994 | 0.382 | 0.176 | 0.558 | 0.678
Cn1cnc2c(F)c(Nc3ccc(Br)cc3Cl)c(C(=O)NOCCO)cc21 [Selumetinib] + C[C@@H]1COCCN1C2=NC(=NC(=C2)C3(CC3)[S@](=N)(=O)C)C4=C5C=CNC5=NC=C4 [AZD6738] (first compound max 10 µM, 7x7, partner max 10 µM) | 0.0236 | 0.0042 | -0.0103 | -0.0259 | 0.01 | -0.0255 | -0.0282 | -0.0196 | -0.0098 | -0.081 | 0.0125 | -0.0083 | 0.569 | 0.864 | 0.677 | 1 | 0.351 | 0.199 | 0.56 | 0.643
